In patent US20110256291A1, “CYCLIC LIPOPEPTIDES FOR USE AS TASTE MODULATORS” (NUTRINOVA NUTRITION SPECIAL TIES & FOOD INGREDIENT GMBH, priority 2008, published 2011):

Molecular target: T1, human T1R2/T1R3 taste receptor (Homo sapiens, UniProt Q7RTX0+Q8TE23)
T1 construct: the cDNA for the receptors ht1R2 and ht1R3 and the cDNA for the blasticidin S deaminase gene have been cloned; expressed in transfected cells; host or cells: HEK293 cell line stably expressing mouse G-alpha-15, stably transfected with the tricistronic vector pTrix-Eb-R2R3 and selected with blasticidin
T1 sequence (Q8TE23 20-839): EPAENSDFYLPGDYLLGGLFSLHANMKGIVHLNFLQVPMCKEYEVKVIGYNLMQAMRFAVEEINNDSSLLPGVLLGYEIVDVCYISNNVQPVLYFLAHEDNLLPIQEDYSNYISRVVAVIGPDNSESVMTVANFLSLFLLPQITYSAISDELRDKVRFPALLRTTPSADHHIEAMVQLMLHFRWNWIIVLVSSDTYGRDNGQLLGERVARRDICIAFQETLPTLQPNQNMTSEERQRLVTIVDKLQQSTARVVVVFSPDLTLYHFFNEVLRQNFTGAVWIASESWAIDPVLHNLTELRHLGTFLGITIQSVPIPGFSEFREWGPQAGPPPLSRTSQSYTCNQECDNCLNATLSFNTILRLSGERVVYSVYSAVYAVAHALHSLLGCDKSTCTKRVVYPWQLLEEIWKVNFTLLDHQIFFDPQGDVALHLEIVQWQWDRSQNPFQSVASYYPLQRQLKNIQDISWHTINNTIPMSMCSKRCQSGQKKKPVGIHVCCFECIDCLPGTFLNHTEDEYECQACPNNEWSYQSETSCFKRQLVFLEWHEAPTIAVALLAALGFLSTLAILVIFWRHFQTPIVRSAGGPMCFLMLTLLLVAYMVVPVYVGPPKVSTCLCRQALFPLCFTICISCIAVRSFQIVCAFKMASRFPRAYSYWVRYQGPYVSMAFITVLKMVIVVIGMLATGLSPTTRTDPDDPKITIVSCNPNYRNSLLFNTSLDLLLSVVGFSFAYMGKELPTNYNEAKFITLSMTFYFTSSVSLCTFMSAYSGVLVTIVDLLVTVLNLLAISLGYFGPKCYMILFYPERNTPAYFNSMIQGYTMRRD
T1 sequence (Q7RTX0 21-852): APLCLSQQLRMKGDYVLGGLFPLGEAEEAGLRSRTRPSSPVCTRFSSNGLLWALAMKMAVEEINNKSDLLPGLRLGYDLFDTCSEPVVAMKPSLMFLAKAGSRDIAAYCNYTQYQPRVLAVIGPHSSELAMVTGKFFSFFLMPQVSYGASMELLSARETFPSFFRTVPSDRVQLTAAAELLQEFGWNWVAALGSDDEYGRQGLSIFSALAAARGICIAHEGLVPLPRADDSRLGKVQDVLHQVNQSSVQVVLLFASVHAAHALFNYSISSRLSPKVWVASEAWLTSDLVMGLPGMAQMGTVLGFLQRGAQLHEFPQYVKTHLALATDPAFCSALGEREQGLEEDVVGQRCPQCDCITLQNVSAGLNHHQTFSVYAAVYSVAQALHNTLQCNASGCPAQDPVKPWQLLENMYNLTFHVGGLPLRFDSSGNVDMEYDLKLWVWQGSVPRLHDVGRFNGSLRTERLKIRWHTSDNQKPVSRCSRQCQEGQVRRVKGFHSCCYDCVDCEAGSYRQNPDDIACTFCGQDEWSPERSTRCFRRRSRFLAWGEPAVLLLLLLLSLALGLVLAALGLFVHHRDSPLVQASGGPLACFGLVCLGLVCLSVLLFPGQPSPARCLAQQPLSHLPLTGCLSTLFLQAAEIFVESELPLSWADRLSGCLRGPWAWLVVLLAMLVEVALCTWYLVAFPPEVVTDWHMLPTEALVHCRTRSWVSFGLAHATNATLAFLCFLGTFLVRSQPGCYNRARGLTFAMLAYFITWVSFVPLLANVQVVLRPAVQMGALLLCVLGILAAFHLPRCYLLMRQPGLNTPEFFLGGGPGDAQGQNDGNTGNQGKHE
Assay: calcium dependent cell based assay (Fluo-4 AM) in HEK293 cells stably expressing G-alpha-15, human T1R2 and human T1R3
Settings: 30 mM fructose (5.4 g/l), pre-examinations
Method: Fluo-4 AM assay with stable HEK293 cells—Stable cells are maintained in DMEM high-glucose medium (Invitrogen) supplemented with 10% fetal bovine serum (Biochrom) and 4 mM L-glutamine (Invitrogen). Cells for calcium imaging are maintained in DMEM low-glucose medium supplemented with 10% FBS and 1× Glutamax-1 (Invitrogen) for 48 hours before seeding. These stable cells are trypsinised after 48 hours (either with Trypsin-EDTA, Accutase or TrypLE) and seeded onto poly-D-lysine coated 96-well assay plates (Corning) at a density of 45,000 cells/well in DMEM low-glucose medium supplemented with 10% FBS and 1× Glutamax-1.
After 24 hours, the cells were loaded in 100 μl medium with additional 100 μl of 4 μM Fluo-4 (calcium sensing dye, 2 μM end concentration; Molecular Probes) in Krebs-HEPES (KH)-buffer for 1 hour. The loading reagent is then replaced by 200 μl KH-buffer per well. […]
The dye-loaded stable cells in plates were placed into a fluorescence microtiter plate reader to monitor fluorescence (excitation 488 nm, emission 520 nm) change after the addition of 50 μl KH-buffer supplemented with 5× tastants. […]
Calcium mobilization was quantified as the change of peak fluorescence (ΔF) over the baseline level (F0). Data were expressed as the mean S.E. of the (ΔF/F0) value of replicated independent samples. The analysis was done with the software of the microtiter plate reader. […]

O=C(CO)[C@@H](O)[C@H](O)[C@H](O)CO [fructose]
activation of the sweet taste receptors: barely activating
